Experimental data: patent publication US20110009335A1, “Anticancer Treatments” (priority 2008, published 2011)
Starred links: 1 amine or outer side, 2 acyl side, 3 side chain; linkers in the order of their positions; H or OH if unused. Positions of bridges follow the written chain, without caps; N, C: chain ends. Non-standard residues stand in square brackets, D forms with d. Residues, ends and D or L forms follow the SMILES beside them. *: point of attachment. X1 = CC[C@H](C)[C@@H](N[*:1])[C@@H](O)CC(=O)O[C@H](C(=O)[C@H](C)C(=O)[*:2])C(C)C; NMeY = CN[C@@H](Cc1ccc(O)cc1)C(=O)O; dNMeL = CN[C@H](CC(C)C)C(=O)O; Pyruvoyl = CC(=O)C(=O)*

Legend:
[1] = test system: A498 human renal tumor xenograft; assay: Aplidine with sorafenib, A498 xenograft in athymic nude mice (Example 1); type: in vivo
Protocol: Female athymic nude mice (Harlan Sprague Dawley, Madison, Wis.) were utilized for all experiments. Mice were implanted with tumor fragments or a cell suspension when mice were 5 weeks of age. Animals were housed in ventilated rack caging, 5 mice per cage, with food and water ad libitum. The mice were acclimated for 1 week prior to being implanted with tumor fragments or cell suspensions.
A498 cells were grown in MEM, 2 mM L-glutamine and 10% FBS. Cells from in vitro passage 4-20 were implanted SC into study mice: 5×10^6 cells/mouse in 0.2 ml 50% Matrigel/50% medium without antibiotics or serum, using a 23 G needle and 1 cc syringe. Matrigel is a biological extracellular matrix that is liquid at 4° C. and solid at 37° C., and it promotes tumor growth by maintaining the cells in close association in a localized area. Bacterial cultures were performed on aliquots of the cells prepared for implantation.
Tumor measurements were determined by using Vernier calipers. The formula to calculate volume for a prolate ellipsoid was used to estimate tumor volume (mm^3) from 2-dimensional tumor measurements: Tumor volume (mm^3)=[L×W^2]÷2, where L is the length and it is the longest diameter in mm, and W is the width and it is the shortest diameter in mm of a tumor. Assuming unit density, volume was converted to weight (i.e., 1 mm^3=1 mg).
(§1) Body weights were recorded on treatment days and when tumor sizes were measured. In those days wherein the two drugs were administered the same day, the combination therapy groups were treated by co-administering the two drugs at the same time, with no attempt to sequence the treatments.
Aplidine was provided in the form of vials of lyophilized aplidine powder which was reconstituted in Cremophor EL/ethanol/water (CEW) 15/15/70 to a concentration of 0.5 mg/ml. Then the aplidine solution in CEW was diluted in 0.9% Saline to the dosing formulation concentrations, being the final proportion of CEW of 0.18/0.18/0.84.
Tumor size measurements were recorded twice weekly from the treatment initiation until the termination of the study.
(§2) Mean, standard deviation and standard error of the mean were determined for tumor volume for all animal groups at all assessments. Student's t test was performed on tumor volumes at each measurement day, including at the end of the study, to determine whether there were any statistically significant differences between combination treatment groups and single monotherapy treatment groups.
Determine the % of tumor growth inhibition, as 100−% T/C, for each of the drugs administered as monotherapy at the doses used in the combinations. % T/C was obtained by comparing the mean tumor weight in the treatment groups (T) to the mean tumor weight in the control group (C) (T/C×100%). • 2. The two scores were added together to determine the “expected response” if each agent produced the same response as it did when administered as monotherapy. • 3. This “expected response” was subtracted from the % of tumor growth inhibition determined for the combination therapy group: • a. A negative number meant that the effect of combining the two drugs was less than additive. • b. If the resulting number was close to zero, the effect of combining the two drugs was determined as additive. • c.

[2] = test system: MRI-H-121 human renal tumor xenograft; assay: Aplidine with temsirolimus, MRI-H-121 xenograft in athymic nude mice (Example 3); type: in vivo; settings: for antitumor activity as single agent (monotherapy): doses tested, temsirolimus 10 and 20 mg/kg/day; for % Inhibition G2: aplidine 0.06 mg/kg/day
Protocol: Female athymic nude mice (Harlan Sprague Dawley, Madison, Wis.) were utilized for all experiments. Mice were implanted with tumor fragments when mice were 5 weeks of age. Animals were housed in ventilated rack caging, 5 mice per cage, with food and water ad libitum. The mice were acclimated for 1 week prior to being implanted with tumor fragments.
Tumor measurements were determined as disclosed in Example 1. When tumor growth was within an average size range of 95±1.6 mg (mean±SD), mice were randomized into the treatment and control groups based on tumor weight by using LabCat® In Life module V 8.0 SP1 tumor tracking and measurement software.
as §1
Aplidine was provided in the form of vials of lyophilized aplidine powder which was reconstituted in Cremophor EL/ethanol/water (CEW) 15/15/70 to a concentration of 0.5 mg/ml. The aplidine solution in CEW was diluted in 0.9% Saline to the dosing formulation concentrations, being the final proportion of CEW of 0.18/0.18/0.84.
Temsirolimus was provided in the form of vials containing a non-aqueous, ethanolic, sterile solution of temsirolimus, 25 mg/ml. […] Then, the solution was further diluted in 0.9% Saline to the dosing formulation concentrations.
Tumor size measurements were recorded twice weekly from the treatment initiation until the termination of the study. Tumor growth inhibition was assessed comparing the mean tumor weight between the two agents in combination (aplidine and temsirolimus) against temsirolimus mean tumor weight at the different concentrations assayed.
as §2
The definition and criteria for the evaluation of potentiation and the degree of additivity for the combination therapy were the same as those disclose in Example 1.

[3] = aplidine 0.040 and/or sorafenib 30 mg/kg/day
[4] = aplidine 0.060 and/or sorafenib 60 mg/kg/day

## CNC(=O)c1cc(Oc2ccc(NC(=O)Nc3ccc(Cl)c(C(F)(F)F)c3)cc2)ccn1 [sorafenib]
[1]; [3]
  % T/C on day 26: 97.0%
  % T/C on day 29: 97.4%
  % T/C on day 33: 76.6%
  % T/C on day 36: 84.2%
  % T/C on day 40: 98.7%
  % T/C on day 43: 70.1%
  % T/C on day 47: 91.2%
  % T/C on day 50: 85.9%
  % T/C on day 54: 105.9%
  % T/C on day 61: 89.6%
[1]; [4]
  % T/C on day 26: 97.4%
  % T/C on day 29: 87.8%
  % T/C on day 33: 80.2%
  % T/C on day 36: 68.6%
  % T/C on day 40: 82.9%
  % T/C on day 43: 51.4%
  % T/C on day 47: 74.9%
  % T/C on day 50: 71.1%
  % T/C on day 54: 78.7%
  % T/C on day 61: 81.3%

## CO[C@H]1C[C@@H]2CC[C@@H](C)[C@@](O)(O2)C(=O)C(=O)N2CCCC[C@H]2C(=O)O[C@H]([C@H](C)C[C@@H]2CC[C@@H](OC(=O)C(C)(CO)CO)[C@H](OC)C2)CC(=O)[C@H](C)/C=C(\C)[C@@H](O)[C@@H](OC)C(=O)[C@H](C)C[C@H](C)/C=C/C=C/C=C/1C [temsirolimus]
[2]
  antitumor activity as single agent (monotherapy): very sensitive
[2]; temsirolimus 10 mg/kg/day, day 12
  % Inhibition G3: 4.2%
[2]; temsirolimus 10 mg/kg/day, day 15
  % Inhibition G3: 37.8%
[2]; temsirolimus 10 mg/kg/day, day 19
  % Inhibition G3: 57.7%
[2]; temsirolimus 10 mg/kg/day, day 22
  % Inhibition G3: 54.3%
[2]; temsirolimus 10 mg/kg/day, day 27
  % Inhibition G3: 61.7%
[2]; temsirolimus 10 mg/kg/day, day 30
  % Inhibition G3: 63.1%
[2]; temsirolimus 10 mg/kg/day, day 34
  % Inhibition G3: 67.4%
[2]; temsirolimus 10 mg/kg/day, day 37
  % Inhibition G3: 64.2%
[2]; temsirolimus 10 mg/kg/day, day 40
  % Inhibition G3: 57.5%
[2]; temsirolimus 10 mg/kg/day, day 47
  % Inhibition G3: 56.2%
[2]; temsirolimus 20 mg/kg/day, day 12
  % Inhibition G3: 2.3%
[2]; temsirolimus 20 mg/kg/day, day 15
  % Inhibition G3: 33.2%
[2]; temsirolimus 20 mg/kg/day, day 19
  % Inhibition G3: 58.5%
[2]; temsirolimus 20 mg/kg/day, day 22
  % Inhibition G3: 64.9%
[2]; temsirolimus 20 mg/kg/day, day 27
  % Inhibition G3: 72.6%
[2]; temsirolimus 20 mg/kg/day, day 30
  % Inhibition G3: 71.5%
[2]; temsirolimus 20 mg/kg/day, day 34
  % Inhibition G3: 73.7%
[2]; temsirolimus 20 mg/kg/day, day 37
  % Inhibition G3: 71.6%
[2]; temsirolimus 20 mg/kg/day, day 40
  % Inhibition G3: 71.5%
[2]; temsirolimus 20 mg/kg/day, day 47
  % Inhibition G3: 73.0%

## CC[C@H](C)[C@H]1NC(=O)[C@@H](NC(=O)[C@@H](CC(C)C)N(C)C(=O)[C@@H]2CCCN2C(=O)C(C)=O)[C@@H](C)OC(=O)[C@H](Cc2ccc(OC)cc2)N(C)C(=O)[C@@H]2CCCN2C(=O)[C@H](CC(C)C)NC(=O)[C@@H](C)C(=O)[C@H](C(C)C)OC(=O)C[C@@H]1O [aplidine, dehydrodidemnin B] (Pyruvoyl-P[dNMeL]T[X1]LP[NMeY](Me); ester 3-C)
[1]; [3]
  % T/C on day 26: 100.8%
  % T/C on day 29: 84.6%
  % T/C on day 33: 78.7%
  % T/C on day 36: 74.8%
  % T/C on day 40: 90.2%
  % T/C on day 43: 65.1%
  % T/C on day 47: 89.8%
  % T/C on day 50: 71.5%
  % T/C on day 54: 86.7%
  % T/C on day 61: 89.5%
[1]; [4]
  % T/C on day 26: 96.8%
  % T/C on day 29: 72.3%
  % T/C on day 33: 71.0%
  % T/C on day 36: 77.0%
  % T/C on day 40: 85.3%
  % T/C on day 43: 78.6%
  % T/C on day 47: 86.5%
  % T/C on day 50: 82.6%
  % T/C on day 54: 90.9%
  % T/C on day 61: 87.8%
[1]; doses and schedules tested
  antitumor activity as single agent (monotherapy): did not reach the NCI criteria for activity
[2]; day 12
  % Inhibition G2: 1.7%
[2]; day 15
  % Inhibition G2: −9.0%
[2]; day 19
  % Inhibition G2: 15.1%
[2]; day 22
  % Inhibition G2: 6.0%
[2]; day 27
  % Inhibition G2: 13.7%
[2]; day 30
  % Inhibition G2: 2.5%
[2]; day 34
  % Inhibition G2: 3.0%
[2]; day 37
  % Inhibition G2: 5.0%
[2]; day 40
  % Inhibition G2: −7.6%
[2]; day 47
  % Inhibition G2: −1.6%
[2]
  antitumor activity as single agent (monotherapy): refractory
